Assays:
[1] = target: G protein-coupled receptor kinase 4 (Homo sapiens) (UniProt P32298); conditions: Compound concentration 100.0 nM
[2] = target: Cyclin-dependent kinase 3 (Homo sapiens) (UniProt Q00526); conditions: Compound concentration 100.0 nM
[3] = target: Serine/threonine-protein kinase DCLK3 (Homo sapiens) (UniProt Q9C098); conditions: Compound concentration 100.0 nM
[4] = target: Serine/threonine-protein kinase TNNI3K (Homo sapiens) (UniProt Q59H18); conditions: Compound concentration 100.0 nM
[5] = target: Serine/threonine-protein kinase pim-2 (Homo sapiens) (UniProt Q9P1W9); conditions: Compound concentration 100.0 nM
[6] = target: Ribosomal protein S6 kinase alpha-2 (Homo sapiens) (UniProt Q15349); conditions: Compound concentration 100.0 nM
[7] = target: Cyclin-dependent kinase 4 (Homo sapiens) (UniProt P11802); conditions: Compound concentration 100.0 nM
Chain of Cyclin-dependent kinase 4 (Homo sapiens) (P11802 whole entry): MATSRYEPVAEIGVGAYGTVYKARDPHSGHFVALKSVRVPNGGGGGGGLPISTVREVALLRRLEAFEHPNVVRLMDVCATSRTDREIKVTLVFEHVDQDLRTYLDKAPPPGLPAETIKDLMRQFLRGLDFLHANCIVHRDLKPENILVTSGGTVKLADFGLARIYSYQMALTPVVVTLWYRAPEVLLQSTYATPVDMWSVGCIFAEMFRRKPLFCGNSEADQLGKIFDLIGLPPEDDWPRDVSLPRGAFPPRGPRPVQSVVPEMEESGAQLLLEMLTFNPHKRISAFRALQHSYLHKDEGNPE

[8] = target: Epidermal growth factor receptor (Homo sapiens) (UniProt P00533); conditions: Compound concentration 100.0 nM
[9] = target: Serine/threonine-protein kinase WNK4 (Homo sapiens) (UniProt Q96J92); conditions: Compound concentration 100.0 nM
[10] = target: Mitogen-activated protein kinase kinase kinase 1 (Homo sapiens) (UniProt Q13233); conditions: Compound concentration 100.0 nM
[11] = target: Cyclin-dependent kinase 8 (Homo sapiens) (UniProt P49336); conditions: Compound concentration 100.0 nM
[12] = target: Glycogen synthase kinase-3 beta (Homo sapiens) (UniProt P49841); conditions: Compound concentration 100.0 nM
[13] = system: ALK tyrosine kinase receptor (Homo sapiens), Q9UM73 [L1196M]; conditions: Compound concentration 100.0 nM
[14] = target: Serine/threonine-protein kinase 3 (Homo sapiens) (UniProt Q13188); conditions: Compound concentration 100.0 nM
[15] = target: Histamine H1 receptor (Homo sapiens) (UniProt P35367); conditions: Compound concentration 10.0 uM
[16] = target: MAP kinase-activated protein kinase 5 (Homo sapiens) (UniProt Q8IW41); conditions: Compound concentration 100.0 nM
[17] = target: Tyrosine-protein kinase TXK (Homo sapiens) (UniProt P42681); conditions: Compound concentration 100.0 nM
[18] = target: Receptor-interacting serine/threonine-protein kinase 4 (Homo sapiens) (UniProt P57078); conditions: Compound concentration 100.0 nM
[19] = species on record: Rattus norvegicus; conditions: Compound concentration 10.0 uM
[20] = target: Serine/threonine-protein kinase RIO2 (Homo sapiens) (UniProt Q9BVS4); conditions: Compound concentration 100.0 nM
[21] = target: Serine/threonine-protein kinase 38 (Homo sapiens) (UniProt Q15208); conditions: Compound concentration 100.0 nM
[22] = target: Receptor tyrosine-protein kinase erbB-4 (Homo sapiens) (UniProt Q15303); conditions: Compound concentration 100.0 nM
[23] = target: Muscarinic acetylcholine receptor M3 (Homo sapiens) (UniProt P20309); conditions: Compound concentration 10.0 uM
[24] = system: Epidermal growth factor receptor (Homo sapiens), P00533 [UNDEFINED MUTATION]; conditions: Compound concentration 100.0 nM
Chain of Epidermal growth factor receptor (Homo sapiens), P00533 [UNDEFINED MUTATION] (P00533 whole entry, looked up, stated change not applied): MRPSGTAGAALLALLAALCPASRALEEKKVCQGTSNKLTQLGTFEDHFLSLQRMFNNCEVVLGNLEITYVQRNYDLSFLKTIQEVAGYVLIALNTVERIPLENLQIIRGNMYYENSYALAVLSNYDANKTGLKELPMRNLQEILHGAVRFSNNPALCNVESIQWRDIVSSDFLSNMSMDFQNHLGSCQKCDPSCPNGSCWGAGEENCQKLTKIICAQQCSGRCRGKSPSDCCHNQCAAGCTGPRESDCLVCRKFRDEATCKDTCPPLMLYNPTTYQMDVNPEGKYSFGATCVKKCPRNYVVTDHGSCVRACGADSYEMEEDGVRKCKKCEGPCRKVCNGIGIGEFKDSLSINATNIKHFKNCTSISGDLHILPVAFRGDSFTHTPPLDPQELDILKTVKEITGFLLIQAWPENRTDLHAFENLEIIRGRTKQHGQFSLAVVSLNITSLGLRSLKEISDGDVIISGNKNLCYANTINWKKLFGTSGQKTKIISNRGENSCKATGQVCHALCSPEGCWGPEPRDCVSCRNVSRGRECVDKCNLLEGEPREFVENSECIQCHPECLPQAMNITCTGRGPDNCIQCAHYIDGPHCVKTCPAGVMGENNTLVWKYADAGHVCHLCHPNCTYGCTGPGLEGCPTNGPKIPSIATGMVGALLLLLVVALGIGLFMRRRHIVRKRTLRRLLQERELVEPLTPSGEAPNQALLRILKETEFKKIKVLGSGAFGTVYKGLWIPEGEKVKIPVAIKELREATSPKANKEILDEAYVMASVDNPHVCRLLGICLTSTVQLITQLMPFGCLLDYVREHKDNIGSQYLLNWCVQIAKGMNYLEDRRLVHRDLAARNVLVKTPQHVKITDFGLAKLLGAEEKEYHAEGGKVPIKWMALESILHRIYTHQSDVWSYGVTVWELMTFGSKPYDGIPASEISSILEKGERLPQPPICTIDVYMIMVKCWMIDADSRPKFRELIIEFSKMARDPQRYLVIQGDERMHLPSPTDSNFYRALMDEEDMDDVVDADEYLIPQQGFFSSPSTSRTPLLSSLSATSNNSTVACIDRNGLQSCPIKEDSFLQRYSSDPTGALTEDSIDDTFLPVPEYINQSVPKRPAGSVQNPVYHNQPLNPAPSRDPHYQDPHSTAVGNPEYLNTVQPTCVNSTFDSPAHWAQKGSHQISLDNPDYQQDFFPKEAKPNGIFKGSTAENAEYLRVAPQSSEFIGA

[25] = target: Vascular endothelial growth factor receptor 1 (Homo sapiens) (UniProt P17948); conditions: Compound concentration 100.0 nM
Chain of Vascular endothelial growth factor receptor 1 (Homo sapiens) (P17948 whole entry): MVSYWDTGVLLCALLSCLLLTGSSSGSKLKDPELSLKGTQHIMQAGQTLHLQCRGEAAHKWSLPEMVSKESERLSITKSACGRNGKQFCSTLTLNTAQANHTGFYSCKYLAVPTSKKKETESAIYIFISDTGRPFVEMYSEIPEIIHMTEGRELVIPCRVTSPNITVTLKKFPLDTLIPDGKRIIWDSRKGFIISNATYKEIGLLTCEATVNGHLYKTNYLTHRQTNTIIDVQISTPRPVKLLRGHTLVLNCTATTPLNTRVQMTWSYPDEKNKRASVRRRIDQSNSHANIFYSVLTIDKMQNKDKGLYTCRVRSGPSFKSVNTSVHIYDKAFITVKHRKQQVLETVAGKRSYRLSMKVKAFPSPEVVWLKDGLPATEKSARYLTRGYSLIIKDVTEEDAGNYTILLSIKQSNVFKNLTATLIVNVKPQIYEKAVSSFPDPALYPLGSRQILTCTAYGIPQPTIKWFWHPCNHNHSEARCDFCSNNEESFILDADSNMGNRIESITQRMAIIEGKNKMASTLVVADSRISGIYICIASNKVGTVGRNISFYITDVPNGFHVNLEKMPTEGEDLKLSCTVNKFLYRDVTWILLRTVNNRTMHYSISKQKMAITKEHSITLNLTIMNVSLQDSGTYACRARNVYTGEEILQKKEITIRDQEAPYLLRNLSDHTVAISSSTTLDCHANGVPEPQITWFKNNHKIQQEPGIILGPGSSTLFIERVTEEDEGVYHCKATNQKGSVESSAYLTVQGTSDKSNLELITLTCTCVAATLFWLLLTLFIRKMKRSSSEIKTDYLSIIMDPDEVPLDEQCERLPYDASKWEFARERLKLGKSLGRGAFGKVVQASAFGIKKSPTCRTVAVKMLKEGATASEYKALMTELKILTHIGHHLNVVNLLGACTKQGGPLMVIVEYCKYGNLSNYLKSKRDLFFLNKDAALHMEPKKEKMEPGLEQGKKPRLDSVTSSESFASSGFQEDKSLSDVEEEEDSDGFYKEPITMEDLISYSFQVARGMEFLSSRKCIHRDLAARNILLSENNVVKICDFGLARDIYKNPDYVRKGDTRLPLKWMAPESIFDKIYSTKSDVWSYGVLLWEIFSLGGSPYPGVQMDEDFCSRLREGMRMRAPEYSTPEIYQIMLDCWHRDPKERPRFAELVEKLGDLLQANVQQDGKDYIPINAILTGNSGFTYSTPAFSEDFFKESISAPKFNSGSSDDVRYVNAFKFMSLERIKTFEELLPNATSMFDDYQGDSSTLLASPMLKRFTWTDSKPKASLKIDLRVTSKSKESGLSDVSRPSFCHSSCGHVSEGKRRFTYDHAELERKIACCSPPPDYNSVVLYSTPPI

[26] = target: Tyrosine-protein kinase ITK/TSK (Homo sapiens) (UniProt Q08881); conditions: Compound concentration 100.0 nM
[27] = target: Dual specificity mitogen-activated protein kinase kinase 2 (Homo sapiens) (UniProt P36507); conditions: Compound concentration 100.0 nM
[28] = target: Phosphorylase b kinase regulatory subunit alpha, liver isoform (Homo sapiens) (UniProt P46019); conditions: Compound concentration 100.0 nM
[29] = system: Epidermal growth factor receptor (Homo sapiens), P00533 [UNDEFINED MUTATION]; conditions: Compound concentration 100.0 nM; remark: listed apart in the source
[30] = system: Tyrosine-protein kinase ABL1 (Homo sapiens), P00519 [F317L]; conditions: Compound concentration 100.0 nM
[31] = target: Serine/threonine-protein kinase 10 (Homo sapiens) (UniProt O94804); conditions: Compound concentration 100.0 nM
[32] = target: Cyclin-dependent kinase 11B (Homo sapiens) (UniProt P21127); conditions: Compound concentration 100.0 nM
[33] = target: Non-receptor tyrosine-protein kinase TYK2 (Homo sapiens) (UniProt P29597); conditions: Compound concentration 100.0 nM
[34] = system: Mast/stem cell growth factor receptor Kit (Homo sapiens), P10721 [D816V]; conditions: Compound concentration 100.0 nM
[35] = target: Serine/threonine-protein kinase PAK 5 (Homo sapiens) (UniProt Q9P286); conditions: Compound concentration 100.0 nM
[36] = target: Serine/threonine-protein kinase PAK 2 (Homo sapiens) (UniProt Q13177); conditions: Compound concentration 100.0 nM
[37] = target: Mitogen-activated protein kinase 13 (Homo sapiens) (UniProt O15264); conditions: Compound concentration 100.0 nM
[38] = system: Mast/stem cell growth factor receptor Kit (Homo sapiens), P10721 [V559D,V654A]; conditions: Compound concentration 100.0 nM
[39] = system: Mast/stem cell growth factor receptor Kit (Homo sapiens), P10721 [A829P]; conditions: Compound concentration 100.0 nM
Chain of Mast/stem cell growth factor receptor Kit (Homo sapiens), P10721 [A829P] (P10721 whole entry A829P): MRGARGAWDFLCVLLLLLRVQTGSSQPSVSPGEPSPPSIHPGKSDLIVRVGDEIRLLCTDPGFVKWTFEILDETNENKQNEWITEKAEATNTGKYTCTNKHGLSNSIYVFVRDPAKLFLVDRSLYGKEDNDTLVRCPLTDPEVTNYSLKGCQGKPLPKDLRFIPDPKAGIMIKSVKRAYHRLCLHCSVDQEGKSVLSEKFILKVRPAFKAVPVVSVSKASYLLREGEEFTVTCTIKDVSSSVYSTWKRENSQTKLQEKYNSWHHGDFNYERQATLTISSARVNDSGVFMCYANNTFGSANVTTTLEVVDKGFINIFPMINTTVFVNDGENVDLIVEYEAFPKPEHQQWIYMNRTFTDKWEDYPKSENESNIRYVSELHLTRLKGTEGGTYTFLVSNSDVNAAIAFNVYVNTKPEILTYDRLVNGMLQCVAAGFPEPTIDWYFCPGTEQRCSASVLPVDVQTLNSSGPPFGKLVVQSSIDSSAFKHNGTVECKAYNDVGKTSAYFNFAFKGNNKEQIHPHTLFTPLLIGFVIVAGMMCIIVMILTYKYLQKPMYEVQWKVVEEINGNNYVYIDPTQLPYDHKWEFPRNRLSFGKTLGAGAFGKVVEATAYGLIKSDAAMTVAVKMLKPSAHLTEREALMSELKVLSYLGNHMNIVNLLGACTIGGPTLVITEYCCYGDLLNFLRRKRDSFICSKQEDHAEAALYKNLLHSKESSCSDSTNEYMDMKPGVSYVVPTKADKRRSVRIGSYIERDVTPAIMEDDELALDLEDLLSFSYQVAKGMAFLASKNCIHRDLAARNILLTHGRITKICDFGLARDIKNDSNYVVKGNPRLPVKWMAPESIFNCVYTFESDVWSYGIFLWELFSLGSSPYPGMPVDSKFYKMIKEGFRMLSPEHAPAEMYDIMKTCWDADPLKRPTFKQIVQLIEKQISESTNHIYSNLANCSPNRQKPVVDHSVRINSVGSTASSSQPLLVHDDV

[40] = target: Mitogen-activated protein kinase 15 (Homo sapiens) (UniProt Q8TD08); conditions: Compound concentration 100.0 nM
[41] = target: Casein kinase I isoform gamma-1 (Homo sapiens) (UniProt Q9HCP0); conditions: Compound concentration 100.0 nM
[42] = target: Serine/threonine-protein kinase MRCK gamma (Homo sapiens) (UniProt Q6DT37); conditions: Compound concentration 100.0 nM
[43] = target: Tyrosine-protein kinase ABL1 (Homo sapiens) (UniProt P00519); conditions: Compound concentration 100.0 nM
Chain of Tyrosine-protein kinase ABL1 (Homo sapiens) (P00519 whole entry): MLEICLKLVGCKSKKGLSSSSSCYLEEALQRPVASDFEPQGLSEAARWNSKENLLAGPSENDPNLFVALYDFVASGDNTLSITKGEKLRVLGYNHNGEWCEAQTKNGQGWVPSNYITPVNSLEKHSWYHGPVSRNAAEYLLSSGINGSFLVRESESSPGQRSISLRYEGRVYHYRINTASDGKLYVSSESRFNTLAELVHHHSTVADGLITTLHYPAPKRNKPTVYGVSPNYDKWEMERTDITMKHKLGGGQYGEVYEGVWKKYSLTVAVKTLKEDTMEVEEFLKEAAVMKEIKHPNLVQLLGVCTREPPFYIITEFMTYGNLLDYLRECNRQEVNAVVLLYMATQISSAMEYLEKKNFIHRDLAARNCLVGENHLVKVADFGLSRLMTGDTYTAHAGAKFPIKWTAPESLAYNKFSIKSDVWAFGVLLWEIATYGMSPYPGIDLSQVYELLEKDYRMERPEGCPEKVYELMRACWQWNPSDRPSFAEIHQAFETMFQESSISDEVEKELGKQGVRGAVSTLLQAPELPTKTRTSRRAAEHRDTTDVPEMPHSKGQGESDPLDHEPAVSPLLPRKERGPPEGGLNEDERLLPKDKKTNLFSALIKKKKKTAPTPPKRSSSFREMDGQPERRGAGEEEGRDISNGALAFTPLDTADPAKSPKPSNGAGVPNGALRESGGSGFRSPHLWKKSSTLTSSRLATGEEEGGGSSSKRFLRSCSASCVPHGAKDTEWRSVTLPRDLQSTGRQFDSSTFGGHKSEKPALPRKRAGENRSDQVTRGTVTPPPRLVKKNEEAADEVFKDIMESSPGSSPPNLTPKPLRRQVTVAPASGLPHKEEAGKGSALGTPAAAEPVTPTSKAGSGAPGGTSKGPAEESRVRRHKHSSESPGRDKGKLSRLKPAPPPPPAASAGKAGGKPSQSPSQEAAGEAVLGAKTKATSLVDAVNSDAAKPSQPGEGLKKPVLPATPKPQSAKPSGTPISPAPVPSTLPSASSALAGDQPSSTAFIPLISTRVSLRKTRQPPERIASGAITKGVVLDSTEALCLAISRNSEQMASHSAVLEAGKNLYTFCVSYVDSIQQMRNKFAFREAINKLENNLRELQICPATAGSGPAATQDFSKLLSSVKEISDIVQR

[44] = target: Serine/threonine-protein kinase Nek6 (Homo sapiens) (UniProt Q9HC98); conditions: Compound concentration 100.0 nM
[45] = target: Protein kinase C epsilon type (Homo sapiens) (UniProt Q02156); conditions: Compound concentration 100.0 nM

CC(C)CC(=O)N1CCc2nc(-c3ccc(Br)cc3)nc(N(C)Cc3ccccc3)c2C1 [THPP-1-NC]
inactive: residual activity [1] 75% | residual activity [2] 100% | residual activity [3] 100% | residual activity [4] 100% | residual activity [5] 100% | residual activity [6] 100% | residual activity [7] 100% | residual activity [8] 100% | residual activity [9] 100% | residual activity [10] 100% | residual activity [11] 82% | residual activity [12] 100% | residual activity [13] 100% | residual activity [14] 100% | inhibition [15] 12.6% | residual activity [16] 100% | residual activity [17] 100% | residual activity [18] 100% | inhibition [19] 41% | residual activity [20] 100% | residual activity [21] 100% | residual activity [22] 94% | inhibition [23] 13.5% | residual activity [24] 100% | residual activity [25] 100% | residual activity [26] 100% | residual activity [27] 100% | residual activity [28] 100% | residual activity [29] 100% | residual activity [30] 100% | residual activity [31] 100% | residual activity [32] 100% | residual activity [33] 100% | residual activity [34] 100% | residual activity [35] 100% | residual activity [36] 100% | residual activity [37] 100% | residual activity [38] 98% | residual activity [39] 97% | residual activity [40] 100% | residual activity [41] 100% | residual activity [42] 100% | residual activity [43] 66% | residual activity [44] 100% | residual activity [45] 100%

COCCOc1nc(-c2ccc(Cl)nc2)nc2c1CN(C(=O)c1ncn3ccccc13)CC2 [THPP-1]
inactive: residual activity [1] 73% | residual activity [2] 100% | residual activity [3] 100% | residual activity [4] 100% | residual activity [5] 98% | residual activity [6] 100% | residual activity [7] 93% | residual activity [8] 88% | residual activity [9] 100% | residual activity [10] 100% | residual activity [11] 100% | residual activity [12] 100% | residual activity [13] 100% | residual activity [14] 100% | inhibition [15] 23.9% | residual activity [16] 100% | residual activity [17] 100% | residual activity [18] 100% | inhibition [19] 26.1% | residual activity [20] 100% | residual activity [21] 100% | residual activity [22] 80% | inhibition [23] 3.95% | residual activity [24] 80% | residual activity [25] 87% | residual activity [26] 100% | residual activity [27] 100% | residual activity [28] 100% | residual activity [29] 100% | residual activity [30] 100% | residual activity [31] 100% | residual activity [32] 100% | residual activity [33] 100% | residual activity [34] 100% | residual activity [35] 100% | residual activity [36] 100% | residual activity [37] 100% | residual activity [38] 75% | residual activity [39] 88% | residual activity [40] 100% | residual activity [41] 100% | residual activity [42] 100% | residual activity [43] 68% | residual activity [44] 100% | residual activity [45] 89%

From ChEMBL document CHEMBL4507293 (2021)
